Converted amounts (≈) assume the structure as drawn.
How the values were obtained:
S. mutans [1] = test: microbe, parasite or virus in culture; assay type: cell-based, Streptococcus mutans; conditions: peptides 0–50 μM, 16 h, 37 °C, microaerophilic, A620 nm, three separate experiments
Source text: (§1) Streptococcus mutans Clarke (strain designation NCTC 10449), Pseudomonas aeruginosa (Schroeter) Migula (strain designation PAO1), Fusobacterium nucleatum, subspecies nucleatum (strain VPI 4355), and Porphyromonas gingivalis (strain 2561) were purchased from ATCC (LGC Standards Srl, Milan, Italy). Streptococcus mitis, Streptococcus oralis, and Streptococcus sanguinis were obtained from clinical isolates and characterized by morphological, biochemical, and molecular typing. S. mutans, S. mitis, S. oralis, and S. sanguinis were maintained in Brain Heart Infusion (BHI) broth or agar under microaerophilic conditions. P. aeruginosa was maintained in trypticase soy (TS) agar or broth. F. nucleatum was maintained in TS agar or broth with defibrinated sheep blood under anaerobic conditions. P. gingivalis was maintained in ATCC Medium 2722 supplemented with TS broth or agar under anaerobic conditions. Before the experiments, bacterial cultures were inoculated in fresh media (dilution 1:100) and grown for 16 h at 37 °C.
(§2) The antimicrobial activities of the tested peptides were assessed through the determination of the minimum inhibitory concentration (MIC) standardized by the Clinical and Laboratory Standards Institute. Bacterial inocula were diluted in 10 mL of MHB […]. The concentration of the bacteria was adjusted to 0.5 McFarland standard, and the bacteria were dispensed in 96-well microtiter plates (final bacterial concentration: 1 × 10^4 CFU/well). Peptides were dissolved in sterile water (stock concentration: 2 mM) and added at final concentrations ranging from 0 to 50 µM. Plates were incubated at 37 °C for 16 h. At the end of incubation, bacterial growth was recorded using a microplate reader (Varioskan Lux Reader; Thermo Fisher Scientific, Milan, Italy) by quantifying the adsorption at 620 nm. Cultures were then opportunely diluted and seeded on agar plates. Bacterial cultures inoculated with the highest final concentration of the vehicle (sterile water) or chlorhexidine hydrochloride salt (CHX, concentration range: 0.05 to 500 μg/mL; Merck, Milan, Italy) were included as controls in each test. Experiments were performed in triplicate.

F. nucleatum = test: microbe, parasite or virus in culture; assay type: cell-based, Fusobacterium nucleatum; conditions: peptides 0–50 μM, 16 h, 37 °C, anaerobic, A620 nm, three separate experiments
Source text: as §1, §2

S. mutans [2] = test: Bacterial growth kinetics; assay type: cell-based, Streptococcus mutans
Description: Peptides were further evaluated for their potential effect in altering the growth kinetics in S. mutans. Overnight bacterial cultures were collected, centrifuged, and suspended in fresh BHI broth at 10^8 CFU/mL. Bacteria were dispensed in sterile 96-well microtiter plates at a final concentration of 1 × 10^6 CFU/100 µL and cultured with peptides or the vehicle at 37 °C for 36 h. Bacterial growth kinetics were monitored by measuring the optical density at 620 nm at different time points using Varioskan Lux Reader (Thermo Fisher Scientific).

[3] = tested on: S. mutans biofilm formation; test: Biofilm formation (crystal violet); assay type: cell-based, Streptococcus mutans; conditions: peptide 20 μM, 72 h, p < 0.05
Description: Overnight cultures of S. mutans were diluted 1:1000 in a 1:10 solution of BHI broth supplemented with 0.2% w/v sucrose and artificial saliva (AS; 1.3 g/L KCl, 0.1 g/L NaCl, 0.05 g/L MgCl, 0.1 g/L CaCl2, 0.5 g/L peptone, 25 μg/L NaF, 27 mg/L KH2PO4, 35 mg/L K2HPO4, pH 6.8; all reagents purchased from Merck). Cultures were seeded into 96-well polystyrene microtiter plates (200 µL/well) and incubated at 37 °C under static conditions. To identify the time of incubation that is useful in obtaining a mature biofilm, plates were incubated for 16, 24, 48, 72, or 96 h. Half of the media was renewed every 24 h. At the end of incubations, the wells were emptied and washed three times with sterile PBS to remove planktonic cells. Adhering cells were incubated with resazurin 0.01% in the dark at 37 °C for 20 min [30]. In metabolically active cells, the non-fluorescent resazurin was reduced to highly fluorescent resorufin by dehydrogenase enzymes. The relative fluorescence units (RFU) of resorufin were measured using a fluorimeter (Ex = 530–570 nm, Em = 590–620 nm; Varioskan Lux Reader; Thermo Fisher Scientific).
To assess the effect of the compounds on biofilm formation or mature biofilm, cultures of S. mutans were prepared as described above. […] The optical density was measured at 570 nm using a microplate reader (Varioskan Lux Reader; Thermo Fisher Scientific). […]

[4] = tested on: S. mutans bacteriocin production against S. sanguinis; test: Bacteriocin overlay assay, S. mutans spotted on S. sanguinis; assay type: cell-based, Streptococcus mutans; conditions: CSP1 20 μM alone vs vehicle, 16 h, 37 °C, microaerophilic
Description: (§3) During the formation of complex biofilm such as dental plaque, the ability of S. mutans to compete with other commensal species determines the success of the cariogenesis process. S. mutans uses antibacterial peptides, namely, bacteriocins, to overcome and subvert the composition of dental microbiota. We investigated the production of bacteriocins using the overlay assay. Overnight cultures of S. mitis, S. oralis, S. sanguinis, P. aeruginosa, F. nucleatum, or P. gingivalis were diluted 1:100 in BHI or TS broth and incubated at 37 °C until they reached an OD620 of 0.3. Cultures were added with agar (BD Difco^TM Agar) at the final concentration of 1.5% w/v and transferred in plates. Overnight cultures of S. mutans were diluted 1:100 in BHI and added with peptides (20 μM) or the vehicle with or without CSP1. Culture media were supplemented with agar to reach the final concentration of 0.7% w/v. The solutions were spotted on the surface of agar plates prepared as described above. The plates were kept on the benchtop for 30 min, allowing the agar containing S. mutans to solidify, and then incubated at 37 °C for 16 h under microaerophilic or anaerobic conditions, as required.
(§4) Spots (10 for each experimental group) were acquired and analyzed using NIH Image J software (version 1.53t August 2022, https://imagej.nih.gov/ij/index.html; accessed on 7 September 2022). The appearance of a clear area on the plate (bacterial growth inhibition) was evaluated as indicative of bacteriocin activity. The diameters of the area were measured in a blinded fashion.

[5] = tested on: S. mutans bacteriocin production against F. nucleatum; test: Bacteriocin overlay assay, S. mutans spotted on F. nucleatum; assay type: cell-based, Streptococcus mutans; conditions: CSP1 20 μM, 16 h, 37 °C, anaerobic
Description: as §3, with “The plates were kept on the benchtop for 30 min, allowing the agar containing S. mutans to solidify, and then incubated at 37 °C for 16 h under microaerophilic or anaerobic conditions, as required.” left out
as §4

CC[C@H](C)[C@H](NC(=O)[C@H](Cc1ccccc1)NC(=O)[C@H](CC(=O)O)NC(=O)[C@H](CCCNC(=N)N)NC(=O)[C@H](Cc1ccccc1)NC(=O)[C@H](Cc1ccccc1)NC(=O)[C@H](CCCCN)NC(=O)[C@H](CO)NC(=O)[C@H](CC(C)C)NC(=O)[C@H](CCCNC(=N)N)NC(=O)[C@H](CCSC)NC(=O)[C@@H](N)CCC(=O)O)C(=O)N[C@@H](CC(C)C)C(=O)N[C@@H](CCC(N)=O)C(=O)N[C@@H](CCCNC(=N)N)C(=O)N[C@@H](CCCCN)C(=O)N[C@@H](CCCCN)C(=O)O [CSP1]
Minimum inhibitory concentration (MIC), S. mutans (S. mutans [1]): 30 µM (≈ 67.3 µg/mL) | Minimum inhibitory concentration (MIC), F. nucleatum (F. nucleatum): >50 µM | Effect on the growth (growth kinetics) of S. mutans (S. mutans [2]; 20 µM peptide, BHI broth, 37 °C, monitored 36 h, A620 nm, three experiments): no significant effects | Colony counting of S. mutans after incubation with the peptide (S. mutans [2]; 20 µM, data not shown): not affected | Effect on biofilm production vs. vehicle [3]: significantly increased | Growth inhibition of co-cultured S. sanguinis by S. mutans stimulated with peptide (diameter of clear area) [4]: significantly inhibited the growth | Growth inhibition of F. nucleatum by S. mutans stimulated with peptide [5]: inhibited the growth
